# Results taken from patent US20050037946A1, “Methods and compositions for treating cardiovascular disease using 1722, 10280, 59917, 85553, 10653, 9235, 21668, 17794, 2210, 6169, 10102, 21061, 17662, 1468, 12282, 6350, 9035, 1820, 23652, 7301, 8925, 8701, 3533, 9462, 9123, 12788, 17729, 65552, 1261, 21476, 33770, 9380, 2569654, 33556, 53656, …” (Millennium Pharmaceuticals, Inc., priority 2003, published 2005).
# Tests used:
# 53656 mRNA = 53656 mRNA in livers of Marmosets (TaqMan); type: in vivo
# 6169 mRNA [1] = test: 6169 mRNA in Marmoset livers (TaqMan); type: in vivo
# From the text: (§1) This example describes the TaqMan™ procedure. The Taqman™ procedure is a quantitative, reverse transcription PCR-based approach for detecting mRNA. The RT-PCR reaction exploits the 5′ nuclease activity of AmpliTaq Gold™ DNA Polymerase to cleave a TaqMan™ probe during PCR. Briefly, cDNA was generated from the samples of interest, e.g., heart, kidney, liver, skeletal muscle, and various vessels, and used as the starting material for PCR amplification. In addition to the 5′ and 3′ gene-specific primers, a gene-specific oligonucleotide probe (complementary to the region being amplified) was included in the reaction (i.e., the Taqman™ probe). […]
# (§2) During the PCR reaction, cleavage of the probe separates the reporter dye and the quencher dye, resulting in increased fluorescence of the reporter. Accumulation of PCR products is detected directly by monitoring the increase in fluorescence of the reporter dye. When the probe is intact, the proximity of the reporter dye to the quencher dye results in suppression of the reporter fluorescence. […]
# 8921 mRNA = 8921 mRNA expression in marmosets; type: in vivo
# 19319 mRNA = 19319 mRNA in ApoE knock-out mice, cholesterol (TaqMan); type: in vivo
# From the text: as §1, §2
# 43969 = 43969 expression in livers of ApoE knock-out mice administered cholesterol (TaqMan); type: in vivo
# From the text: as §1, §2
# 17729 mRNA = 17729 mRNA in ApoE knockout mouse models, cholesterol feeding (TaqMan); type: in vivo
# From the text: as §1, §2
# 10653 mRNA [2] = test: 10653 mRNA in liver of ApoE knockout mice, cholesterol feeding (TaqMan); type: in vivo; details: two and six months of cholesterol feeding of ApoE knockout mice
# From the text: as §1, §2
# 2569654 mRNA [3] = test: 2569654 mRNA in livers of ApoE knock out mice with cholesterol feeding (TaqMan); type: in vivo; details: livers of ApoE knock out (KO) mice with cholesterol feeding
# From the text: as §1, §2
# 6169 mRNA [4] = test: 6169 mRNA in liver of African Green Monkeys, lipid feeding (TaqMan); type: in vivo; details: feeding / in the diet
# 9235 mRNA = 9235 mRNA in livers of African Green Monkeys, cholesterol (TaqMan); type: in vivo; details: p=0.09
# From the text: as §1, §2
# 554 mRNA = 554 mRNA in livers of African Green Monkeys, cholesterol; type: in vivo
# 9325 mRNA = 9325 mRNA in liver of ApoE knockout mice, cholesterol feeding (TaqMan); type: in vivo; details: two and six months of cholesterol feeding of ApoE knockout mice
# From the text: as §1, §2
# 112091 = 112091 expression in livers of African Green Monkeys, cholesterol; type: in vivo
# 54946 mRNA = 54946 mRNA in livers of Apo E knock out mice, cholesterol (microarray or RT-PCR); type: in vivo; details: livers of Apo E knock out mice relative to wild-type controls, p=0.001
# 10653 mRNA [5] = test: 10653 mRNA in livers of African Green Monkeys, cholesterol (TaqMan); type: in vivo; details: p=0.05
# From the text: as §1, §2
# isolated rat arterioles = details: compared to basal tone; cited from earlier work
# 7301 mRNA = 7301 mRNA in livers of marmosets treated with lipid-lowering therapies (TaqMan); type: in vivo
# From the text: as §1, §2
# 10653 mRNA [6] = test: 10653 mRNA in livers of marmosets treated with lipid-lowering therapies (TaqMan); type: in vivo
# 10102 mRNA = 10102 mRNA regulation by lipid lowering drugs (TaqMan)
# 8701 mRNA = 8701 mRNA in livers of marmosets treated with lipid-lowering therapies (TaqMan); type: in vivo
# 9123 mRNA = 9123 mRNA in livers of marmosets treated with lipid-lowering therapies (TaqMan); type: in vivo
# From the text: as §1, §2
# 9462 mRNA = 9462 mRNA regulation by lipid lowering drugs (TaqMan)
# From the text: as §1, §2
# 3533 mRNA = 3533 mRNA regulation by lipid lowering drugs (TaqMan)
# From the text: (§3) This example describes the TaqMan™ procedure. The Taqman™ procedure is a quantitative, reverse transcription PCR-based approach for detecting mRNA. The RT-PCR reaction exploits the 5′ nuclease activity of AmpliTaq Gold™ DNA Polymerase to cleave a TaqMan™ probe during PCR. Briefly, cDNA was generated from the samples of interest, e.g., heart, kidney, liver, skeletal muscle, and various vessels, and used as the starting material for PCR amplification. In addition to the 5′ and 3′ gene-specific primers, a gene-specific oligonucleotide probe (complementary to the region being amplified) was included in the reaction (i.e., the Taqman™ probe). The TaqMan™ probe includes the oligonucleotide with a fluorescent reporter dye covalently linked to the 5′ end of the probe (such as FAM (6-carboxyfluorescein), TET (6-carboxy4,7,2′,7′-tetrachlorofluorescein), JOE (6-carboxy-4,5-dichloro-2,7-dimethoxyfluorescein), or VIC) and a quencher dye (TAMRA (6-carboxy-N,N,N′,N′-tetramethylrhodamine) at the 3′ end of the probe.
# (§4) During the PCR reaction, cleavage of the probe separates the reporter dye and the quencher dye, resulting in increased fluorescence of the reporter. Accumulation of PCR products is detected directly by monitoring the increase in fluorescence of the reporter dye. When the probe is intact, the proximity of the reporter dye to the quencher dye results in suppression of the reporter fluorescence. During PCR, if the target of interest is present, the probe specifically anneals between the forward and reverse primer sites. The 5′-3′ nucleolytic activity of the AmpliTaq™ Gold DNA Polymerase cleaves the probe between the reporter and the quencher only if the probe hybridizes to the target. The probe fragments are then displaced from the target, and polymerization of the strand continues. The 3′ end of the probe is blocked to prevent extension of the probe during PCR. […] RNA was prepared using the trizol method and treated with DNase to remove contaminating genomic DNA. cDNA was synthesized using standard techniques.
# 2569654 mRNA [7] = test: 2569654 mRNA in marmoset models (TaqMan); type: in vivo
# From the text: as §3, §4
# coronary arteries = details: disruption of microtubules; cited from earlier work
# 9380 mRNA = 9380 mRNA in livers of marmosets (TaqMan); type: in vivo
# 2552 mRNA = 2552 mRNA in marmoset livers (TaqMan); type: in vivo
# 1261 mRNA = 1261 mRNA in statically cultured or shear-stressed cells (TaqMan); type: cell-based
# From the text: as §3, §4
# isolated hepatocytes = details: via the CCK-B receptor; cited from earlier work
# 261 mRNA = 261 mRNA in cultured human monocytes and macrophages (TaqMan); type: cell-based
# From the text: as §1, §2
# 33556 mRNA = 33556 mRNA in cultured human macrophages (TaqMan); type: cell-based; details: 18h of stimulation
# From the text: as §1, §2
# 12282 mRNA = 12282 mRNA in cultured human monocytes and macrophages (TaqMan); type: cell-based; details: 18 hours of stimulation
# From the text: as §1, §2
# [8] = tested on: serine/threonine kinase Akt; details: primary human peripheral blood monocytes; cited from earlier work
# 9035 mRNA = 9035 mRNA in cultured human monocytes and macrophages (TaqMan); type: cell-based; details: 18 hours of stimulation
# From the text: as §1, §2
# Syk = test: 1673 (Syk) expression in monocytes and macrophages (TaqMan); type: cell-based; details: monocytes or macrophages
# From the text: as §1, §2
compound,measurement,setting,value
COCc1c(C(C)C)nc(C(C)C)c(/C=C/[C@@H](O)C[C@@H](O)CC(=O)O)c1-c1ccc(F)cc1 [cerivastatin],53656 mRNA upregulated,53656 mRNA,1.4 fold
same,6169 mRNA upregulated,6169 mRNA [1],2.4 fold
same,increase in 8921 mRNA expression,8921 mRNA,1.4 fold
CC(C)CCC[C@@H](C)[C@H]1CC[C@H]2[C@@H]3CC=C4C[C@@H](O)CC[C@]4(C)[C@H]3CC[C@]12C [cholesterol],19319 mRNA expression,19319 mRNA,downregulated
same,43969 expression,43969,downregulated
same,17729 mRNA expression,17729 mRNA,downregulated
same,10653 mRNA downregulated,10653 mRNA [2],1.3 fold
same,2569654 mRNA expression,2569654 mRNA [3],significantly downregulated
same,6169 mRNA downregulated,6169 mRNA [4],1.3 fold
same,9235 mRNA downregulated,9235 mRNA,1.3 fold
same,554 mRNA expression,554 mRNA,down-regulated
same,9325 mRNA downregulated,9325 mRNA,1.8 fold
same,112091 expression,112091,down-regulated
same,54946 mRNA downregulated,54946 mRNA,0.62 fold
same,10653 mRNA downregulated,10653 mRNA [5],1.5 fold
CN[C@H]1CCc2cc(OC)c(OC)c(OC)c2-c2ccc(OC)c(=O)cc21 [demecolcine],vasoconstriction,isolated rat arterioles,32.7%
Cc1ccc(C)c(OCCCC(C)(C)C(=O)O)c1 [gemfibrozil],7301 mRNA expression,7301 mRNA,down-reregulated
same,10653 mRNA expression,10653 mRNA [6],downregualted
same,10102 mRNA expression,10102 mRNA,significantly upregulated
same,8701 mRNA expression,8701 mRNA,upregulated
same,9123 mRNA expression,9123 mRNA,upregulated
O=C(O)c1cccnc1 [niacin],10102 mRNA expression,10102 mRNA,significantly upregulated
same,9462 mRNA expression,9462 mRNA,upregulated
same,3533 mRNA expression,3533 mRNA,significantly downregulated
same,2569654 mRNA expression,2569654 mRNA [7],upregulated
COC(=O)Nc1nc2ccc(C(=O)c3cccs3)cc2[nH]1 [nocodazole],vascular tension and intracellular calcium levels,coronary arteries,increases
same,vasoconstriction,isolated rat arterioles,29.6%
CC(C)(Sc1cc(C(C)(C)C)c(O)c(C(C)(C)C)c1)Sc1cc(C(C)(C)C)c(O)c(C(C)(C)C)c1 [probucol],9380 mRNA expression,9380 mRNA,upregulated
same,7301 mRNA expression,7301 mRNA,down-reregulated
same,2552 mRNA expression,2552 mRNA,upregulated
same,10653 mRNA expression,10653 mRNA [6],downregualted
same,10102 mRNA expression,10102 mRNA,significantly upregulated
same,9123 mRNA expression,9123 mRNA,upregulated
IL-1β,1261 expression in response to angiogenic/inflammatory stimuli,1261 mRNA,transient upregulation
TNF-α,1261 expression in response to angiogenic/inflammatory stimuli,1261 mRNA,transient upregulation
VEGF,1261 expression in response to angiogenic/inflammatory stimuli,1261 mRNA,transient upregulation
same,"1261 mRNA expression, timecourse","1261 mRNA; 1 hour of treatment, statically cultured or shear-stressed cells",strong upregulation
same,1261 mRNA expression,1261 mRNA; VEGF individually,upregulated
cholesystkinin-8 [CCK-8],reduction of triacylglycerol secretion,isolated hepatocytes,53%
interferon gamma,261 mRNA expression,261 mRNA,downregulated
same,33556 mRNA expression,33556 mRNA,upregulated
same,12282 mRNA expression,12282 mRNA,upregulated
same,phosphorylation of the serine/threonine kinase Akt,[8],induces
same,9035 mRNA expression,9035 mRNA,upregulated
same,Syk expression,Syk,No apparent upregulation
